Measured values taken from ChEMBL document CHEMBL2146446, “3-Hydroxy-1-alkyl-2-methylpyridine-4(1H)-thiones: Inhibition of the Pseudomonas aeruginosa Virulence Factor LasB” (ACS Med Chem Lett, 2012).
The source made the active and inactive calls. No cut-off for these calls is given here.

What was measured:
Elastase = Elastase (Pseudomonas aeruginosa (strain ATCC 15692 / PAO1 / 1C / PRS 101 / LMG12228), UniProt P14756); assay: (§1) Antagonist activity at Pseudomonas aeruginosa LasB using Abz-Ala-Gly-Leu-Ala-p-Nitro-Benzyl-Amide as substrate incubated for 30 mins prior to substrate addition by FRET assay; assay type: functional
Sequence of Elastase (P14756 whole entry): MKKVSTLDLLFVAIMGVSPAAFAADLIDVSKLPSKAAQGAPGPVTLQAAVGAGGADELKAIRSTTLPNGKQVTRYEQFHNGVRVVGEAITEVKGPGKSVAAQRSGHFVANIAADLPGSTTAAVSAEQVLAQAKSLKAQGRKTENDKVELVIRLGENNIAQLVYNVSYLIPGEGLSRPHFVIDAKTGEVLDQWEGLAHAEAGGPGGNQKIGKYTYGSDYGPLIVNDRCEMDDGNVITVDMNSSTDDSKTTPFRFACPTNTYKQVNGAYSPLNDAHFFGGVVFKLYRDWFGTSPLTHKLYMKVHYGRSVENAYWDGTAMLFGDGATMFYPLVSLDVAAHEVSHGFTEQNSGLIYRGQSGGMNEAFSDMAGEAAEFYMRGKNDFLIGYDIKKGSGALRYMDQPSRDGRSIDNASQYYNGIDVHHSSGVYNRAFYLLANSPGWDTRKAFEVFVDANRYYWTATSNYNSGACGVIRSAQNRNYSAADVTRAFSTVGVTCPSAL

[1] = target: Elastase (Pseudomonas aeruginosa (strain ATCC 15692 / PAO1 / 1C / PRS 101 / LMG12228)) (UniProt P14756); assay: as §1; assay type: functional
Sequence of Elastase (Pseudomonas aeruginosa (strain ATCC 15692 / PAO1 / 1C / PRS 101 / LMG12228)) (P14756 198-498 limits assumed): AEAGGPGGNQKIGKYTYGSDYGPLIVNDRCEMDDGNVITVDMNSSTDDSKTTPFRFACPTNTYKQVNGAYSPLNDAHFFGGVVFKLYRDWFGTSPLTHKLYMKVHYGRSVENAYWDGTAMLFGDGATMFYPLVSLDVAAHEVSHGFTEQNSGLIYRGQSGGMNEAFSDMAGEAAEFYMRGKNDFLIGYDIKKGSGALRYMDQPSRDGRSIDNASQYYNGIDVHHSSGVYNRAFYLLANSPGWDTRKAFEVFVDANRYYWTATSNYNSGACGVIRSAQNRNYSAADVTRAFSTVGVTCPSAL

[2] = target: Elastase (Pseudomonas aeruginosa (strain ATCC 15692 / PAO1 / 1C / PRS 101 / LMG12228)) (UniProt P14756); assay: Antagonist activity at Pseudomonas aeruginosa PA14 LasB assessed as inhibition of swarming at 25 uM after 16 hrs swarming motility assay relative to control; assay type: functional
Pseudomonas aeruginosa = assay: Toxicity against Pseudomonas aeruginosa PA14 assessed as viability at 25 uM by spectrophotometry; assay type: organism-based; settings: read-out: Activity
[3] = Metabolic stability in tryptic soy broth assessed as decomposition at 50 uM after 48 hrs; assay type: physicochemical
[4] = Metabolic stability in tryptic soy broth assessed as S-oxidation at 50 uM after 48 hrs; assay type: physicochemical

**Q.** For `Cc1c(O)c(=S)ccn1Cc1ccc(-c2ccc(F)cc2)cc1`, which IC50 (Elastase) is on record?
**A.** Its IC50 is 4.65 µM.

**Q.** What does the source list for `CCn1ccc(=S)c(O)c1C`?
**A.** IC50 (Elastase): 88.5 µM; Activity [1]: Dose-dependent effect

**Q.** Which Activity [1] does the source give for `Cc1c(O)c(=S)ccn1C` here?
**A.** The Activity was “Dose-dependent effect”.

**Q.** For `Cc1c(O)c(=S)ccn1Cc1ccc(-c2ccc(F)c(F)c2)cc1`, which Activity [2] is on record?
**A.** The Activity was “Active”.

**Q.** What about the viability at 25 µM (Pseudomonas aeruginosa) of the same compound?
**A.** Its viability at 25 µM is 95%.

**Q.** And the IC50 (Elastase)?
**A.** The IC50 was 3.34 µM.

**Q.** And the Stability [3]?
**A.** The Stability was “Stable”.

**Q.** What about the Stability [4] of the same compound?
**A.** The Stability was “Stable”.

**Q.** Which IC50 (Elastase) does the source give for `Cc1ccc(-c2ccc(Cn3ccc(=S)c(O)c3C)cc2)cc1` here?
**A.** The IC50 was 6.72 µM.

**Q.** For `COc1ccc(-c2ccc(Cn3ccc(=S)c(O)c3C)cc2)cc1`, which IC50 (Elastase) is on record?
**A.** The IC50 was 8.58 µM.

**Q.** Which Activity [1] does the source give for `CCc1c(O)c(=S)ccn1CC` here?
**A.** Its Activity is “Dose-dependent effect”.

**Q.** With `Cc1c(O)c(=S)ccn1Cc1ccc(-c2ccccc2)cc1` as the compound, how does the Activity [2] read?
**A.** The Activity was “Active”.

**Q.** What about the viability at 25 µM (Pseudomonas aeruginosa) of the same compound?
**A.** Its viability at 25 µM is 95%.

**Q.** And the IC50 (Elastase)?
**A.** The IC50 was 2.73 µM.

**Q.** What about the Stability [3] of the same compound?
**A.** Its Stability is “Stable”.

**Q.** What about the Stability [4] of the same compound?
**A.** Its Stability is “Stable”.

**Q.** Which Activity [2] does the source give for `O=C(Cc1cccc(F)c1)NO` here?
**A.** The Activity was “inactive”.

**Q.** And the IC50 (Elastase)?
**A.** The IC50 was 16.4 µM.

**Q.** What about the Activity [1] of the same compound?
**A.** The Activity was “Dose-dependent effect”.

**Q.** And the Stability [3]?
**A.** The Stability was “Unstable”.

**Q.** What about the Stability [4] of the same compound?
**A.** Its Stability is “Unstable”.

**Q.** With `Cc1c(O)c(=S)ccn1Cc1ccc(-c2ccc(Cl)cc2)cc1` as the compound, how does the IC50 (Elastase) read?
**A.** Its IC50 is 5.27 µM.

**Q.** For `O=C(Cc1ccccc1)NO` [PHENYLACETOHYDROXAMIC ACID], which Activity [2] is on record?
**A.** The Activity was “inactive”.

**Q.** And the IC50 (Elastase)?
**A.** Its IC50 is 13.6 µM.

**Q.** What about the Activity [1] of the same compound?
**A.** Its Activity is “Dose-dependent effect”.

**Q.** What about the Stability [3] of the same compound?
**A.** Its Stability is “Unstable”.

**Q.** And the Stability [4]?
**A.** The Stability was “Unstable”.

**Q.** For `Cc1c(O)c(=S)ccn1Cc1ccc(-c2ccc3c(c2)OCO3)cc1`, which IC50 (Elastase) is on record?
**A.** Its IC50 is 3.58 µM.

**Q.** What does the source list for `Cn1cccc(O)c1=S`?
**A.** IC50 (Elastase): 220 µM; Activity [1]: Dose-dependent effect
